# Where a name gives a salt, the structure may show the parent alone.
# Legend:
# [1] = Odor threshold and odor value of perfuming compounds (Tables 4 to 10)
# [2] = Volatility of perfuming compounds (Tables 4 to 10), with top/middle/bottom note type; type: physicochemical
# Method in brief: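 Note type follows from air volatility (μg/l): bottom 49–0.1, middle 99–50, top 70,000–100. Compounds are listed within watery, green, fruity, citrus, sweet, gourmand and woody families.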
# [3] = perfuming compounds having a green note
# [4] = Table 6, perfuming compounds having a fruity note
# [5] = Table 6, perfuming compounds having a fruity note, note type by volatility
# [6] = note type (Top/Middle/Bottom) by volatility, perfuming compounds having a green note
# [7] = Table 8, perfuming compounds having a sweet note
# [8] = Table 8, perfuming compounds having a sweet note, note type by volatility
# [9] = Table 9, perfuming compounds having a gourmand note, note type by volatility
# [10] = Table 10, perfuming compounds having a woody note, note type by volatility
# [11] = Table 7, citrus note, equals volatility divided by odor threshold
# [12] = Table 7, citrus note, top, middle or bottom note
# [13] = Table 4, watery note, equals volatility divided by odor threshold
# [14] = Table 4, watery note, top, middle or bottom note
smiles,measurement,setting,value
CC/C=C\CCOC=O [(Z)-3-HEXENYL FORMATE],Odor Threshold (μg/l air),[1]; [3],2.11E−03 μg/l air
same,Volatility,[2]; [4],9873.53 μg/l air
same,Type,[2]; [5],"TOP (perfuming compounds having a volatility ranging from 70,000 to 100 μg/l in air are referred to as “top notes”)"
same,Type,[2]; [6],Top
same,Volatility (μg/l air),[2]; [3],9873.53 μg/l air
CCCCCCC1CCC(=O)O1 (racemic) [(+−)-4-DECANOLIDE],Odor Threshold,[1]; [4],1.61E−04 μg/l air
same,Odor Value,[1]; [4],6.51E+04
same,Odor Threshold,[1]; [7],1.61E−04 μg/l air
same,Odor Value,[1]; [7],6.51E+04
same,Odor Threshold,"[1]; Table 9, gourmand note",1.61E−04 μg/l air
same,Volatility,[2]; [4],10.49 μg/l air
same,Type,[2]; [5],Bottom
same,Volatility,[2]; [7],10.49 μg/l air
same,Type,[2]; [8],Bottom
same,Volatility,"[2]; Table 9, gourmand note",10.49 μg/l air
same,Type,[2]; [9],Bottom
CC(=O)CCC1=C(C)CCCC1(C)C,Odor Threshold,[1]; [7],8.51E−03 μg/l air
same,Odor Value,[1]; [7],7.48E+03
same,Odor Threshold,"[1]; Table 10, woody note",8.51E−03 μg/l air
same,Volatility,[2]; [7],63.61 μg/l air
same,Type,[2]; [8],Middle
same,Type,[2]; [10],Middle
same,Volatility,"[2]; Table 10, woody note",63.61 μg/l air
CCCCCC=O [hexanal],Odor Threshold (μg/l air),"[1]; Table 7, citrus note",1.76E−03 μg/l air
same,Odor Value,[1]; [11],3.88E+07
same,Odor Threshold (μg/l air),[1]; [3],1.76E−03 μg/l air
same,Volatility (μg/l air),"[2]; Table 7, citrus note",68294.85 μg/l air
same,Type,[2]; [12],Top
same,Type,[2]; [6],Top
same,Volatility (μg/l air),[2]; [3],68294.85 μg/l air
CCCCCCCCC=O [nonanal],Odor Threshold (μg/l air),"[1]; Table 7, citrus note",8.14E−03 μg/l air
same,Odor Value,[1]; [11],3.41E+05
same,Odor Threshold (μg/l air),[1]; [3],8.14E−03 μg/l air
same,Volatility (μg/l air),"[2]; Table 7, citrus note",2777.63 μg/l air
same,Type,[2]; [12],Top
same,Type,[2]; [6],Top
same,Volatility (μg/l air),[2]; [3],2777.63 μg/l air
CC(C)(C)C(=O)OCCc1ccccc1 [2-PHENYLETHYL PIVALATE],Odor Threshold,[1]; [4],3.85E−02 μg/l air
same,Odor Value,[1]; [4],1.86E+03
same,Odor Threshold,[1]; [7],3.85E−02 μg/l air
same,Odor Value,[1]; [7],1.86E+03
same,Odor Threshold,"[1]; Table 9, gourmand note",3.85E−02 μg/l air
same,Volatility,[2]; [4],71.44 μg/l air
same,Type,[2]; [5],Middle
same,Volatility,[2]; [7],71.44 μg/l air
same,Type,[2]; [8],Middle
same,Volatility,"[2]; Table 9, gourmand note",71.44 μg/l air
same,Type,[2]; [9],Middle
CCCCCCCOC(C)=O [heptyl acetate],Odor Threshold (μg/l air),"[1]; Table 7, citrus note",1.32E−01 μg/l air
same,Odor Value,[1]; [11],2.14E+04
same,Volatility,[2]; [4],2814.34 μg/l air
same,Type,[2]; [5],"TOP (perfuming compounds having a volatility ranging from 70,000 to 100 μg/l in air are referred to as “top notes”)"
same,Volatility (μg/l air),"[2]; Table 7, citrus note",2814.34 μg/l air
same,Type,[2]; [12],Top
C=C1C2CCC(C)(OCC)C1CCC2(C)C (racemic),Odor Threshold,"[1]; Table 10, woody note",1.37E−01 μg/l air
same,Type,[2]; [10],Top
same,Volatility,"[2]; Table 10, woody note",135.00 μg/l air
CC(C)=CC1CC(C)CCO1 (stereo not shown),Odor Threshold (μg/l air),[1]; [3],8.77E−04 μg/l air
same,Type,[2]; [6],Top
same,Volatility (μg/l air),[2]; [3],2483.93 μg/l air
"CCCc1ccc2c(c1)OCC(=O)CO2 [7-PROPYL-2H,4H-1,5-BENZODIOXEPIN-3-ONE]",Odor Threshold (μg/l air),"[1]; Table 4, watery note",6.43E−05 μg/l air
same,Odor Value,[1]; [13],7.54E+04
same,Odor Threshold (μg/l air),[1]; [3],6.43E−05 μg/l air
same,Volatility (μg/l air),"[2]; Table 4, watery note",4.85 μg/l air
same,Type,[2]; [14],bottom (perfuming compounds having a volatility ranging from 49 to 0.1 μg/l in air are referred to as “bottom notes”)
same,Type,[2]; [6],Bottom
same,Volatility (μg/l air),[2]; [3],4.85 μg/l air
CCC(=O)OC/C=C/c1ccccc1 [(E)-3-PHENYL-2-PROPENYL PROPANOATE],Odor Threshold,[1]; [4],1.28E−04 μg/l air
same,Odor Value,[1]; [4],6.35E+04
same,Volatility,[2]; [4],8.14 μg/l air
same,Type,[2]; [5],Bottom
"COC(=O)c1c(C)cc(O)c(C)c1O [METHYL 2,4-DIHYDROXY-3,6-DIMETHYLBENZOATE]",Odor Threshold (μg/l air),"[1]; Table 4, watery note",4.89E−06 μg/l air
same,Odor Value,[1]; [13],3.11E+05
same,Volatility (μg/l air),"[2]; Table 4, watery note",1.52 μg/l air
same,Type,[2]; [14],bottom (perfuming compounds having a volatility ranging from 49 to 0.1 μg/l in air are referred to as “bottom notes”)
C=CC(O)CCCCC (racemic) [(+−)-1-octen-3-ol],Odor Threshold (μg/l air),[1]; [3],1.77E−03 μg/l air
same,Type,[2]; [6],Top
same,Volatility (μg/l air),[2]; [3],3030.11 μg/l air
CC/C=C(\C)C(O)CCCCC (racemic) [(+−)-(E)-4-METHYL-3-DECEN-5-OL],Odor Threshold,[1]; [4],6.78E−04 μg/l air
same,Odor Value,[1]; [4],9.46E+04
same,Odor Threshold (μg/l air),[1]; [3],6.78E−04 μg/l air
same,Volatility,[2]; [4],64.15 μg/l air
same,Type,[2]; [5],Middle
same,Type,[2]; [6],Middle
same,Volatility (μg/l air),[2]; [3],64.15 μg/l air
C=C1CCCC(C)(C)C1C(=O)/C=C/C (racemic),Odor Threshold,[1]; [7],3.73E−03 μg/l air
same,Odor Value,[1]; [7],4.10E+04
same,Odor Threshold,"[1]; Table 9, gourmand note",3.73E−03 μg/l air
same,Volatility,[2]; [4],152.99 μg/l air
same,Type,[2]; [5],"TOP (perfuming compounds having a volatility ranging from 70,000 to 100 μg/l in air are referred to as “top notes”)"
same,Volatility,[2]; [7],152.99 μg/l air
same,Type,[2]; [8],Top
same,Volatility,"[2]; Table 9, gourmand note",152.99 μg/l air
same,Type,[2]; [9],Top
